For one compound, Ki results are on record in ChEMBL document CHEMBL2417511, “Probes for narcotic receptor mediated phenomena. 48. C7- and C8-substituted 5-phenylmorphan opioids from diastereoselective alkylation” (Eur J Med Chem, 2013).

A word on the Ki: it is the dissociation constant of the complex between target and ligand, obtained from inhibition or displacement.

Assay type in all cases: cell-based
Assay [1] has as its target Kappa-type opioid receptor (Homo sapiens, UniProt P41145). The experiment in a line: Displacement of [3H]U69,593 from human kappa opioid receptor expressed in CHO cells after 2 hrs by liquid scintillation counting. In general terms: Loss of bound radioactivity is the signal in a displacement assay; it reports binding, not function.
Assay [2] addresses Delta-type opioid receptor (Homo sapiens, UniProt P41143). The experiment in a line: Displacement of [3H]DADLE from human delta opioid receptor expressed in CHO cells after 2 hrs by liquid scintillation counting.
Assay [3] has as its target Mu-type opioid receptor (Homo sapiens, UniProt P35372). The experiment in a line: Displacement of [3H]DAMGO from human mu opioid receptor expressed in CHO cells after 2 hrs by liquid scintillation counting.

Molecules are shown by their SMILES.

Chain of Mu-type opioid receptor (P35372 whole entry): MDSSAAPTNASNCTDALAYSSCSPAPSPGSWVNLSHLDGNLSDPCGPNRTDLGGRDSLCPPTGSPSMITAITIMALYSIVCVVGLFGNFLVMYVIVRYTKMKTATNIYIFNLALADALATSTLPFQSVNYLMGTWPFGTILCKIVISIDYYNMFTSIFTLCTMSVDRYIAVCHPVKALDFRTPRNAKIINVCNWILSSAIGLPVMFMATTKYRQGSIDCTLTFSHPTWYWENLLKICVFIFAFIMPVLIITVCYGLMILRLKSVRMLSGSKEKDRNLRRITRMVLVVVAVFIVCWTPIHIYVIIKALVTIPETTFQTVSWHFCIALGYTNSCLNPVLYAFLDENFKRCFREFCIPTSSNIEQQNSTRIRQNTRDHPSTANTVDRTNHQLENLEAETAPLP
Chain of Delta-type opioid receptor (P41143 whole entry): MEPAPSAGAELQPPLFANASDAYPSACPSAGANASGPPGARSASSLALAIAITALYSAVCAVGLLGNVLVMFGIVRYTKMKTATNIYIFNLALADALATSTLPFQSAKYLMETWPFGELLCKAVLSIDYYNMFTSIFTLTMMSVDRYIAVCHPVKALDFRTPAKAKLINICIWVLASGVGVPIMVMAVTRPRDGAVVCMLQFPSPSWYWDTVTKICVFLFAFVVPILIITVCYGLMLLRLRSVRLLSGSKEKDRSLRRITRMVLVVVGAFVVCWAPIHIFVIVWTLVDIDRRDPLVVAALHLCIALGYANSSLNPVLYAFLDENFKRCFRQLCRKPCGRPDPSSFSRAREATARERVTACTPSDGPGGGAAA
Chain of Kappa-type opioid receptor (P41145 whole entry): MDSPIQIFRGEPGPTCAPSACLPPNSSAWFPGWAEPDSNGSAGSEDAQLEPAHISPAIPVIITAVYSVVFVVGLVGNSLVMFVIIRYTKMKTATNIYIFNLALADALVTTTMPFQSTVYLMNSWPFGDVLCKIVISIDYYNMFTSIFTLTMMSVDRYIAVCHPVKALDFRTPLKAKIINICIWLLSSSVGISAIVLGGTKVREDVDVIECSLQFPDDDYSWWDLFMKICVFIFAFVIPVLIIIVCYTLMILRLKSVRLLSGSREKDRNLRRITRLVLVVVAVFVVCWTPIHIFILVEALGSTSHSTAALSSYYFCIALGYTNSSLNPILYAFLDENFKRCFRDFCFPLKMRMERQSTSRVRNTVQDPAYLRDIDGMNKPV

Consider `CN1CC[C@]2(c3cccc(O)c3)C[C@H](O)C[C@@H]1C2`, for which the Ki in assay [1] stood at 1.23 µM; in assay [2], 1.96 µM; in assay [3] it was 0.022 µM.
